Values of other authors as cited in US20230414692A1, “ETHANOLIC EXTRACT OF SEEDS OF SOLANUM MELONGENA, METHOD FOR OBTAINING IT, PHARMACEUTICAL COMPOSITION CONTAINING IT AND USE THEREOF AS AN ANTITUMOUR AGENT” (UNIVERSIDAD DE GRANADA, priority 2020, published 2023).

Assays:
[1] = test system: NIE.115 neuroblastoma cell line; conditions: Cohen et al., 1996
[2] = test system: 143B.TK osteosarcoma cell line; conditions: Cohen et al., 1996

For `C/C=C(/C)C(=O)O[C@H]1C[C@@H](OC(C)=O)[C@@]2(C)CO[C@H]3[C@H]4O[C@@H]5C[C@@H](c6ccoc6)C(C)=C5[C@@]4(C)[C@H](CC(=O)OC)[C@]1(C)[C@@H]32` [Salannin], the IC50 [1] is listed as 133 ± 6 µM and the IC50 [2] is listed as 89 ± 12 µM.
